Data as given in US8679478B2, “Methods of lysosomal storage disease therapy” (Duke University, priority 2010, dated 2014).

How the values were obtained:
Assay type in all cases: in vivo, mouse
[1] = tested on: immune tolerant GAA-KO mice; experiment: Histopathology of brain, glycogen staining; conditions: cerebellum; in comparison with ERT alone
Method: Histopathology was performed to examine brain involvement, and glycogen accumulations were detected in the cerebellum with ERT alone. Albuterol and clenbuterol each reduced the glycogen staining in the cerebellum, in comparison with ERT alone.

CI-MPR = experiment: Western blot and densitometry of CI-MPR expression in skeletal muscle and brain; conditions: following clenbuterol treatment
Method: Western blot detection of CI-MPR and control proteins, β-actin or glyceraldehydes-3-phosphate dehydrogenase (GAPDH) in the tissues of GAA-KO mice is shown, with molecular weights indicated. Each lane represents an individual mouse. Equivalent quantities of tissue homogenate were loaded for each mouse. […] Mean+/−standard deviation are shown. Statistically significant differences indicated (*=p<0.05; **=p<0.01).
(§1) For in vivo analysis of AAV vectors, stocks were administered intravenously (via the retroorbital sinus) in 3 month-old and 15 month-old GAA-KO mice, and to 3 month-old tolerant GAA-KO and DKO mice. Clenbuterol (30 μg/ml) was administered to groups of 3 month-old vector-injected and mock-injected male GAA-KO mice in drinking water for 28 days. At the indicated time points post-injection, tissue samples were obtained and processed as described below. All animal procedures were done in accordance with Duke University Institutional Animal Care and Use Committee-approved guidelines. GAA activity and glycogen content were analyzed essentially as described (Sun et al., Mol. Ther., 2005, 11:889-898; Sun et al., Mol. Ther., 2005, 11: 57-65). Rotarod testing was performed essentially as described (Sun, B. D. et al. 2005). Western blotting of hGAA was performed essentially as described (Amalfitano et al., Proc. Natl. Acad. Sci. USA, 1999, 96: 8861-8866) using the hGAA monoclonal antibody (courtesy of Genzyme Corp., Framingham, Mass.) and the CI-MPR antibody (catalog number GTX28093; Gene Tex, Irvine, Calif.).

GAA-KO mice [2] = experiment: GAA activity in tissues, ERT plus clenbuterol; conditions: ERT plus clenbuterol v. ERT alone
Method: FIG. 8A-8C depicts increased GAA uptake and increased glycogen clearance in GAA-KO mice following clenbuterol treatment and ERT. […] GAA-KO mice were administered four weekly doses of rhGAA (20 mg/kg), and treated with clenbuterol (n=6) or untreated (n=5). […] Mean+/−standard deviation are shown. Statistically significant differences indicated (*=p<0.05; **=p<0.01).
as §1
The efficacy from gene therapy was increased by β2 agonist stimulation from clenbuterol treatment, and this benefit might be expected to affect ERT in Pompe disease, as well. Therefore, groups of 3 month-old GAA-KO mice were treated with four weekly doses of rhGAA (20 mg/kg), with or without concurrent clenbuterol treatment.

GAA-KO mice [3] = experiment: Rotarod testing, ERT (rhGAA) plus clenbuterol; conditions: rhGAA 20 mg/kg weekly x4 plus clenbuterol v. ERT alone; male mice; p=0.04 at 1 week
Method: GAA-KO mice were administered four weekly doses of rhGAA (20 mg/kg), and treated with clenbuterol (n=5) or ERT alone (n=5). […] Mean+/−standard deviation are shown. Statistically significant differences indicated (*=p<0.05; **=p<0.01).
as §1, with “Calif.). […]” for “Calif.).”

With `CC(C)(C)NCC(O)c1cc(Cl)c(N)c(Cl)c1` (centres unmarked) [clenbuterol] the “glycogen staining (histopathology)” value [1] was “reduced”, the “CI-MPR signal (densitometry of Western blots)” value (shortened to “CI-MPR signal”) (CI-MPR; EDL) was “increased” and the “CI-MPR signal” value (CI-MPR; cerebellum) was “increased”. The “CI-MPR signal” value (CI-MPR; cerebrum) was “increased”, the GAA activity (GAA-KO mice [2]; gastrocnemius, p=0.04) was “significantly increased” and the GAA activity (GAA-KO mice [2]; liver, p<0.0001) was “significantly increased”. For the same molecule, the GAA activity (GAA-KO mice [2]; spleen, p=0.002) was “significantly increased” and the Rotarod latency (GAA-KO mice [3]) was “increased Rotarod latency”.
